From patent US20020016346A1, “Method for enhancing outflow of aqueous humor in treatment of glaucoma” (The Regents University of California, a California …, priority 1994, published 2002) come the findings set out here.

Like-named read-outs stand apart in the source and are kept apart here.

One test relates to eye of a rabbit. Put plainly: Intra-ocular pressure in rabbits after subconjunctival injection. The class given is in vivo. As for the experimental part: Male albino New Zealand rabbits weighing≧2 Kg were used for in vivo experiments performed under various active animal use protocols approved by the Institutional Animal Care and Use Committee at UC Davis. Animals were sedated with an intravenous dose of Napentabarbitol, 1-2 mg/Kg to permit their handling and frequent measurement of intra-ocular pressure (IOP). Topical anesthesia consisting of Proparacaine HCl (Alcaine™) was used for IOP measurements. A pneumatonometer (Mentor O & O Classic Model 30 Penumatonometer™, Norwell, Mass.) calibrated to a known (25 mmHg) pressure prior to each experiment was used for all IOP measurements. This model of Pneumatonometer provides a readout of standard deviation of each measurement; only measurements with a standard deviation of≦1 mmHg were accepted and most were less than 0.5 mmHg. Following sedation, IOP measurements were carried out over at least 30 minutes to assure that a stable baseline IOP was present.
Drugs and/or vehicle was administered to one eye of each animal via subconjunctival injection in order to bypass any barriers to drug penetration, such as an intact corneal and conjunctival epithelium and to achieve rapid and high concentrations of drug, bypassing epithelial barriers. The contralateral eye treated only with vehicle served as a control for each animal. Two syringes were prepared for each experiment, one containing drug and vehicle, the other containing only vehicle. […] Injections raised a prominent bleb, confirming subconjunctival placement of the drug or vehicle. This bleb then smoothed out over about ten minutes, indicating diffusion of the drug or vehicle throughout the subconjunctival space.
Measurements of intra-ocular pressure were taken at various intervals following the subconjunctival administration of the drug and/or vehicle. IOP in both eyes fluctuated over time reflecting the level of anesthesia. During the course of the experiment, the animal handlers and investigators were masked as to which eve had received the drug or control injection.

Test [1] relates to Na+—K+—2Cl− cotransporter.
Method: Thus, studies were conducted to determine the magnitude of net K uptake mediated by the TM cell Na^+—K^+—2Cl^− cotransporter. For determination of the net potassium uptake, the potassium contents of TM cells were evaluated by atomic absorption spectrophotometry, as described previously by O'Donnell, M. E. (supra, 1993). Briefly, cells were preincubated in 10 μM bumetanide for 5 minutes, and assayed as described above, with the exception that no ^86Rb was present during the assay. Cell ionic contents were extracted with 5% trichloroacetic acid following removal of extracellular potassium by washing the monolayers with ice-cold 0.1 M MgCl2.

On to `CCCCNc1cc(C(=O)O)cc(S(N)(=O)=O)c1Oc1ccccc1` [bumetanide], for which the “average IOP lowering effect” value in the test with eye of a rabbit (average of two experiments, FIG. 6) was “over 20%”. Also, the “effect on IOP” value in the test with eye of a rabbit (bumetanide 10^−5 M in DMSO, 0.1 cc subconjunctival, first animal) was “rapid and pronounced and lasted beyond two hours”. Further, the “bumetanide-sensitive net K uptake” value in test [1] (Cl omitted from the incubation medium, n=8) is −2.62±2.82 μmol K/gm protein/min; in test [1] (Na omitted from the incubation medium, n=8) it was 1.71±2.49 μmol K/gm protein/min; in test [1] (steady state, 10 μM bumetanide), 7.78=1.98 μmol K/gm protein/min.
